From US12453700B2, “Nano-particles of menaquinone-9 and methods of treatment” (Epizon, Inc., priority 2024, dated 2025)

Assay: Dissolution testing of MK-9 API and nanosuspension in Fed State Simulated Intestinal Fluid (FeSSIF)
Assay type: physicochemical
Settings: for % Dissolution (Avg of n = 3): FeSSIF pH 5, 37° C., 0.01 mg/mL drug load
Procedure: MK-9 (menaquinone-9, API) is suspended in an aqueous vehicle containing wetting agent sodium deoxycholate. The API concentration is 4% and the wetting agent concentration was 0.4% w/w. The API particles are milled to a particle size of 155 nm using zirconium milling beads and high shear Beadbeater mixing. The dissolution of the nanosuspension is tested at a concentration of 0.01 mg/mL, in triplicate, in pH 5 Fed State Simulated Intestinal Fluid (FeSSIF).
2. Fill three (3) vessels with 500 mL of FeSSIF media and heat to 37° C.
3. Set up the following dissolution conditions:
4. Vortex suspension x for approximately one minute so that it is uniform. Weigh three (3) aliquots of 0.15 g of the 4% nanosuspension into a tared syringe to give a target 100% dissolution concentration of 0.01 mg/mL. Record weight.
5. Add weighed suspension directly to each vessel.
7. After five minutes, manually pull up 3 mL from each dissolution vessel in a syringe.
8. Attach a 0.2 μm filter to the syringe.
9. Transfer 2 mL of the dissolution sample back into the vessel.
10. Transfer the final 1 mL of sample to an amber HPLC vial and crimp seal.
12. After the 60-minute time-point, mix each vessel for 5 minutes with a high shear mixer.
13. Repeat Step #8-11 and label this sample as ‘infinity’.
14. Run samples on HPLC 10 minutes HPLC method with replicate HPLC standard solutions.
MK-9 (menaquinone-9, API) is suspended in an aqueous vehicle containing wetting agent, sodium deoxycholate. The API concentration is 4% and the wetting agent concentration was 0.4% w/w. The API particles are milled to a particle size of 155 nm by use of zirconium milling beads and high shear Beadbeater mixing. The dissolution of the nanosuspension is tested at a concentration of 0.01 mg/mL, in triplicate, in pH 5 FeSSIF. […] The nano-milling process is scaled up and the suspended nano-particles are removed from the suspension vehicle, dry and formulate into a fast dissolving tablet, and tested.

CC(C)=CCC/C(C)=C/CC/C(C)=C/CC/C(C)=C/CC/C(C)=C/CC/C(C)=C/CC/C(C)=C/CC/C(C)=C/CC/C(C)=C/CC1=C(C)C(=O)c2ccccc2C1=O [API, menaquinone-9]
% Dissolution (Avg of n = 3) (timepoint 0 minute): 0% | % Dissolution (Avg of n = 3) (timepoint 10 minute): 96% | % Dissolution (Avg of n = 3) (timepoint 10 minute, listed as MK-9 API): about 20% | % Dissolution (Avg of n = 3) (timepoint 15 minute): 97% | % Dissolution (Avg of n = 3) (timepoint 30 minute): 97% | % Dissolution (Avg of n = 3) (timepoint 45 minute): 98% | % Dissolution (Avg of n = 3) (timepoint 60 minute): 96% | % Dissolution (Avg of n = 3) (timepoint Infinity (after 5 minutes high shear mixing)): 97% | % Dissolution (dissolution profile) (FeSSIF, at about 120 mins): about 20%
